From patent publication US20100204276A1, “INDOLE COMPOUNDS, A PROCESS FOR THEIR PREPARATION AND PHARMACEUTICAL COMPOSITIONS CONTAINING THEM” (LES LABORATOIRES SERVIER, priority 2006, published 2010)

Tests used:
[1] = molecular target: MT1 receptor (Homo sapiens, UniProt P48039); test: Melatonin MT1 receptor binding study (2-[125I]-iodomelatonin competition); details: 2-[125I]-iodomelatonin as radioligand, triplicate
Method: (§1) The MT1 or MT2 receptor binding experiments are carried out using 2-[^125I]-iodomelatonin as reference radioligand. The radioactivity retained is determined using a liquid scintillation counter.
(§2) Competitive binding experiments are then carried out in triplicate using the various test compounds. A range of different concentrations is tested for each compound. The results enable the binding affinities (Ki) of the compounds tested to be determined.

[2] = molecular target: T1, MT2 receptor (Homo sapiens, UniProt P49286); test: Melatonin MT2 receptor binding study (2-[125I]-iodomelatonin competition); details: 2-[125I]-iodomelatonin as radioligand, triplicate
T1 sequence (P49286 1-362): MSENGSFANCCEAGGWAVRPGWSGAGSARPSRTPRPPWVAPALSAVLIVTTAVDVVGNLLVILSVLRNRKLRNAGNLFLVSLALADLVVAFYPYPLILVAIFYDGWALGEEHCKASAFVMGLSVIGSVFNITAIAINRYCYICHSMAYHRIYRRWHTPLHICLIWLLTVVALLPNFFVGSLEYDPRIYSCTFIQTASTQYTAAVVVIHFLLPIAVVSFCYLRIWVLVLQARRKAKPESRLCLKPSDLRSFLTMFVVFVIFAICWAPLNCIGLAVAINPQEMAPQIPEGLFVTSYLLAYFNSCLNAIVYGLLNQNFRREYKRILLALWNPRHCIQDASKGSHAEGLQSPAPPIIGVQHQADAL
Method: as §1, §2

Sequence of MT1 receptor (P48039 whole entry): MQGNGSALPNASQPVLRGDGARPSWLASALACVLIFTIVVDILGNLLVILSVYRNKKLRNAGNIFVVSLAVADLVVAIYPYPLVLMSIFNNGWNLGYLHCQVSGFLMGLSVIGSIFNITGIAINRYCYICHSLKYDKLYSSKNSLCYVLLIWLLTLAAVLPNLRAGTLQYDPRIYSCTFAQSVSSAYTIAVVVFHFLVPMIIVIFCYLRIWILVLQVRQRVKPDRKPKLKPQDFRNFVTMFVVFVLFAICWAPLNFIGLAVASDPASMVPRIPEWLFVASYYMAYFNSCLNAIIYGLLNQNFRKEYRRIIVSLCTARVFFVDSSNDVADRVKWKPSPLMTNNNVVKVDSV

Work on `CCCC(=O)NCCc1c[nH]c2ccc(OCCN3CCCCC3)cc12` [Example 3, N-(2-{5-[2-(1-piperidinyl)ethoxy]-1H-indol-3-yl}ethyl)butanamide] yielded a Ki [1] of 11 nM, a melting point of 113 to 114 °C and a Ki [2] of 19 nM.
